Consider 2 substances from patent US20250302882A1, “PHARMACEUTICAL COMPOSITION FOR PREVENTING OR TREATING NEURODEGENERATIVE DISEASE, CONTAINING, AS ACTIVE INGREDIENTS, CYCLODEXTRIN AND STEM CELLS IN WHICH VEGF IS OVEREXPRESSED” (KYUNGPOOK NATIONAL UNIVERSITY INDUSTRY-ACADEMIC COOPERATION …, priority 2017, published 2025).

The conditions of test [1]: introduced into SVZ; Application No. 10-2017-0015676; cited from earlier work.
Test [2] has as its system NP-C mice. Briefly: Inflammatory response of the cortex by GFAP (astrocyte) staining. Conditions: 10-week-old. In kind it is in vivo. The procedure: (§1) Administration of cyclodextrin (Sigma, H107) and VEGF-overexpressed neural stem cells was performed on a schedule as illustrated in FIG. 1. Specifically, NP-C mice or VEGFNP-C mice were subcutaneously injected with cyclodextrin by 4000 mg/kg from 1 week old. When the NP-C mice injected with the cyclodextrin were 4-week-old, a cannula was mounted in a subventricular zone (SVZ) for combined injection into the SVZ of the VEGF-overexpressed neural stem cells, and the VEGF-overexpressed neural stem cells (to 1×10^6 cell/3 ul) were injected into the SVZ twice a week. A cell injection rate was implanted at a flow rate of 0.3 μl/min.
(§2) The brain tissue (cortex or cerebellum) of a mouse was cut to a thickness of 50 μm using vibratome, and then cultured with anti-GFAP (rabbit, 1:500, DAKO) and anti-Calbindin (rabbit, 1:100, milipore). In addition, filipin staining (Polysciences, Inc.) was performed on tissues of each organ from the mouse to confirm the accumulation degree of cholesterol. Cortex, cerebellum, liver, lung, kidney, and spleen sites were analyzed using a laser scanning confocal microscope or an Olympus BX51 microscope equipped with Fluoview SV1000 imaging software (Olympus FV1000, Japan). A percentage of an area of a stained area to an area of total tissues was quantified using Metamorph software (Molecular Devices). […]

The test system of test [3] is NP-C mice. Briefly: Cerebellar neural cells by Calbindin staining (Purkinje neuron). The format is in vivo. The conditions noted are these: VEGFNP-C mice; 10-week-old. Here is the method: as §1, §2
Test [4] has as its system NP-C mice. Nature of the test: Cholesterol accumulation by Amplex red assay and Filipin staining. The format is in vivo. The conditions noted are these: VEGFNP-C mice; 10-week-old; cortex, cerebellum and organs. Here is the method: as §1, §2
The subject of test [5] is NP-C mice. Briefly: Inflammatory response of the cerebellum by GFAP (astrocyte) staining. Conditions: 10-week-old. The format is in vivo. Here is the method: as §1, §2
The test system of test [6] is NP-C mice. Nature of the test: Change in weight of NP-C mice. The format is in vivo. Conditions: VEGFNP-C mice; cyclodextrin 4000 mg/kg once a week s.c.; compared to NP-C mice given cyclodextrin alone. From the text:
(§3) In Balb/C (Orient, wild type), NPC mutant mice in which an NPC1 gene is deleted (RIKEN, received from Japan, NP-C mice; a weight was smaller than that of normal mice with the same week old, a serious mobility loss was shown from 4 to 6 week old to show tremors and seizures of the limbs, and a lifespan was approximately 9 to 10 weeks), and brain cell-specific VEGF-overexpressed NP-C mice (VEGFNP-C mice; produced through mating of VEGFtg mice overexpressing VEGF in a brain cell-specific promoter (received from University of Heidelberg, Germany, Yaoming Wang et al., (2005)) and NP-C mice, a lifespan was approximately 9 to 10 weeks like the NP-C mice, and brain inflammation and lipid accumulation were alleviated as compared to the NP-C mice), systems thereof were kept by genotyping through PCR. The mice were disposed in a test group by using a block randomization method. In order to eliminate prejudice, […]. All mice tests were approved by Kyungpook National University Institutional Animal Care and Use Committee (IACUC).
(§4) Administration of cyclodextrin (Sigma, H107) and VEGF-overexpressed neural stem cells was performed on a schedule as illustrated in FIG. 1. Specifically, NP-C mice or VEGFNP-C mice were subcutaneously injected with cyclodextrin by 4000 mg/kg from 1 week old. […]

Test [7] relates to NP-C mice. Nature of the test: Lipid accumulation (sphingosine, sphingomyelin) in cortex, cerebellum and organs, UPLC. The format is in vivo. The conditions noted are these: VEGFNP-C mice, 10-week-old. The procedure:
as §1
The cortex, the cerebellum, and organs (liver, lung, kidney, spleen, etc.) of each mouse were extracted, added with a homogeneous buffer solution containing 50 mM HEPES (Invitrogen), a 150 mM sodium chloride solution (NaCl) (Sigma), 0.2% Igepal CA-630 (Sigma), and a protease inhibitor (Milipore), homogenized using a homogenizer, and then centrifuged at 13,000 rpm for 10 minutes. After 10 minutes, additional centrifugation was performed at 13,000 rpm for 30 minutes. […] A dry lipid extract obtained above was resuspended in 0.2% Igepal CA-630 (Sigma), and then the concentration of each lipid was measured using a UPLC system. […]

Test [8] has as its system NP-C mice. Nature of the test: Mobility by Rota-rod and Beam tests. The format is in vivo. Conditions: for each week age. Here is the method: as §1
In order to confirm the mobility of a mouse in each test group, Rota-rod and Beam tests were performed. In the Rota-rod test (Ugo Basile, Comerio, VA, Italy), a Rota-rod movement was performed three times or more at a rotation rate of 4 rpm using a machine equipped with a rod of a diameter of 3 cm which was appropriately processed for providing a grip, and then an endurance time of a test animal was measured in units of second and an average value thereof was recorded. […] In the Beam test, a mouse was placed on a starting point of a rod of a width of 6 mm or 12 mm and then a time taken to move to an end point was measured. […]

Test [9] relates to NP-C mice. Nature of the test: Survival rate of NP-C mice. The conditions noted are these: VEGFNP-C mice (brain cell-specific VEGF-overexpressed NP-C mice); cyclodextrin 4000 mg/kg once a week s.c.; compared to NP-C mice given cyclodextrin alone. The format is in vivo.
Excerpt: as §3, §4

In the case of VEGF, the “medicinal effect by improvement of an SVZ environment” value in [1] is listed as “could not be achieved”.

As to cyclodextrin, the “inflammatory response (GFAP: astrocyte) in the cortex” value with NP-C mice [2] (NP-C mice) is on record as “somewhat alleviated”; in the test on NP-C mice [2] (VEGFNP-C mice) it was “more effectively improved”. In the test on NP-C mice [3], the “reduced neural cells (Calbindin: Purkinje neuron) in the cerebellum” value is “most efficiently increased”. Besides, the accumulation of cholesterol entry in the test on NP-C mice [4] is “more reduced”. Further, the “inflammatory response (GFAP: astrocyte) in the cerebellum” value in the test on NP-C mice [5] (NP-C mice) is reported as “alleviated to a certain level”; in the test on NP-C mice [5] (VEGFNP-C mice), “more effectively alleviated”. Besides, in the test on NP-C mice [6], the weight result is “significantly increased”. Also, the “sphingosine accumulated in the cortex and the cerebellum” value in the test on NP-C mice [7] is given as “most effectively reduced”. Besides, the sphingomyelin accumulation result in the test on NP-C mice [7] (liver, lung, kidney, spleen, cortex and cerebellum) is “most effectively reduced”. The “mobility (Rota-rod and Beam tests)” value in the test on NP-C mice [8] (NP-C mice) was “improved mobility compared to NP-C mice”; in the test with NP-C mice [8] (VEGFNP-C mice) it was “most effective”. Also, the survival rate result in the test on NP-C mice [9] was “significantly increased”.
